# Source: patent US20230255904A1, “PHARMACEUTICAL COMPOSITION FOR PREVENTING OR TREATING CANCER COMPRISING NAPHTHOQUINONE-BASED COMPOUND AND IMMUNE CHECKPOINT INHIBITOR AS ACTIVE INGREDIENTS” (NADIANBIO LTD., priority 2020, published 2023)
# How the values were obtained:
# calreticulin (ecto-CRT) = assay: Immunogenic cell death analysis: calreticulin on the surface of tumor cells by flow cytometry; type: cell-based; settings: compared to the control
# Description: Calreticulin is one of the most important molecules in the immunogenic cell death process. When the calreticulin appears on membranes of tumor cell, a strong signal for phagocytotic cells including dendritic cells may be generated to cause the phagocytotic cells to attack dying tumor cells. This is the most significant “eat me” signal for immune cells. Whether or not immunogenic cell death was induced by the anticancer agents used in the present invention was assessed through the quantitative change of calreticulin expressed on the surface of cancer cells after the treatment with the anticancer agents. Single cells isolated from the tumor were incubated with anti-calreticulin antibody (ratio of 1:50) as a primary antibody at 4° C. for 30 minutes, and then washed 2 times with PBS.
# RENCA = assay: Tumor growth inhibition, animal model for renal cancer (RENCA); type: in vivo, BALB/c mice; settings: Dunnione 40 mg/kg oral every day from 7th day
# Description: (§1) All mice used in the experiments were raised in a sterile animal room with constant temperature (22° C. to 26° C.) and constant humidity (55% to 60%), acclimatized for 1 week while sufficiently supplying typical solid feed (Samtako Inc., Korea) and water, and then used. All experiments were conducted after obtaining approval from the Institutional Animal Care and Use Committee in accordance with the laboratory animal care and ethics regulations of the Institutional Animal Care and Use Committee of Wonkwang University.
# (§2) 7-week-old BALB/c or C57BL/6 mice were used, and subcutaneously inoculated using a 1-mL insulin syringe within 30 minutes after mixing the mouse cancer cells with 0.2 mL of PBS.
# (§3) After the cancer cell line was subcutaneously implanted, the administration of drugs was started when the size of the cancer reached 50 to 100 mm^3. The volumes (mm^3) of the tumors, which were generated after the inoculation, were measured at intervals of 3 days using a caliper, calculation was performed using the formula of […], and then the results thereof were compared.
# (§4) In addition, sole administration or co-administration of respective drugs was performed according to the administration schedules listed in Tables 4 to 34 below, the tumor volumes were then measured according to the tumor proliferation assessment method described in Example 1.1, the tumor growth inhibition rates (TGI (O)=(Vc−Vt)/Vc×100(%); Vc: tumor volume of control, Vt tumor volume of experimental group) were calculated based the tumor volumes, and the results thereof are shown in the respective tables and FIGS. 1 to 31.
# B16F10 = assay: Tumor growth inhibition, animal model for skin cancer (B16F10); type: in vivo,  mice; settings: Experimental Example 26; Dunnione 40 mg/kg oral every day from 8th day; Everolimus 0.5 mg/kg oral every day from 8th day
# Description: as §1, §2, §3, §4
# 4T1 = assay: Tumor growth inhibition, animal model for breast cancer I (4T1); type: in vivo, BALB/c mice; settings: Experimental Example 10; Dunnione 40 mg/kg oral every day from 5th day; Anti-CTLA4 antibody 200 μg/head i.p. at intervals of 3 days from 5th day, 4 times; Mitoxantrone 6 mg/kg i.p. once on 5th day
# Description: as §1, §2, §3, §4
# MC38 = assay: Tumor growth inhibition, animal model for colorectal cancer I (MC38); type: in vivo, C57BL/6 mice; settings: Experimental Example 4; Dunnione 40 mg/kg oral every day from 7th day; Anti-LAG3 antibody 200 μg/head i.p. on 7th, 10th, 14th, 17th days; Oxaliplatin 6 mg/kg i.p. on 7th and 14th days
# Description: as §1, §2, §3, §4
structure (smiles),measurement,setting,value
CCN1CCN(Cc2ccc(Nc3ncc(F)c(-c4cc(F)c5nc(C)n(C(C)C)c5c4)n3)nc2)CC1 [Abemaciclib],Expression rate (%) of calreticulin on cell surface,"calreticulin (ecto-CRT); Breast cancer, EMT6",263%
COc1cccc2c1C(=O)c1c(O)c3c(c(O)c1C2=O)C[C@@](O)(C(=O)CO)C[C@@H]3O[C@H]1C[C@H](N)[C@H](O)[C@H](C)O1 [Adriamycin],Expression rate (%) of calreticulin on cell surface,"calreticulin (ecto-CRT); Breast cancer, 4T1",307%
"CO[C@H]1C[C@@H]2CC[C@@H](C)[C@@](O)(O2)C(=O)C(=O)N2CCCC[C@H]2C(=O)O[C@H]([C@H](C)C[C@@H]2CC[C@@H](OCCO)[C@H](OC)C2)CC(=O)[C@H](C)/C=C(\C)[C@@H](O)[C@@H](OC)C(=O)[C@H](C)C[C@H](C)/C=C/C=C/C=C/1C [Everolimus, reference compound]",TGI (%),"RENCA; Experimental Example 15, Anti-CTLA4 antibody 200 μg/head i.p. at intervals of 3 days from 7th day, 7 times, Everolimus 250 μg/kg oral every day from 7th day",72.8%
same,TGI (%),B16F10,28.5%
same,Expression rate (%) of calreticulin on cell surface,"calreticulin (ecto-CRT); Liver cancer, Hapa1-6",892%
same,Expression rate (%) of calreticulin on cell surface,"calreticulin (ecto-CRT); Renal cancer, RENCA",134%
same,Expression rate (%) of calreticulin on cell surface,"calreticulin (ecto-CRT); Skin cancer (melanoma), B16F10",216%
"O=C1c2c(O)ccc(O)c2C(=O)c2c(NCCNCCO)ccc(NCCNCCO)c21 [Mitoxantrone, reference compound]",TGI (%),4T1,16.3%
same,Expression rate (%) of calreticulin on cell surface,"calreticulin (ecto-CRT); Breast cancer, 4T1",385%
"O=C1[O][Pt]2([NH][C@@H]3CCCC[C@H]3[NH]2)[O]C1=O [Oxaliplatin, reference compound]",TGI (%),MC38,5.6%
CC(=O)O[C@H]1C(=O)[C@@]2(C)[C@H]([C@H](OC(=O)c3ccccc3)[C@]3(O)C[C@H](OC(=O)[C@H](O)[C@@H](NC(=O)c4ccccc4)c4ccccc4)C(C)=C1C3(C)C)[C@]1(OC(C)=O)CO[C@@H]1C[C@@H]2O [Paclitaxel],Expression rate (%) of calreticulin on cell surface,"calreticulin (ecto-CRT); Skin cancer (melanoma), B16F10",186%
CNC(=O)c1cc(Oc2ccc(NC(=O)Nc3ccc(Cl)c(C(F)(F)F)c3)c(F)c2)ccn1 [Regorafenib],Expression rate (%) of calreticulin on cell surface,"calreticulin (ecto-CRT); Colorectal cancer, MC38",134%
same,Expression rate (%) of calreticulin on cell surface,"calreticulin (ecto-CRT); Skin cancer (melanoma), B16F10",166%
"CNC(=O)c1cc(Oc2ccc(NC(=O)Nc3ccc(Cl)c(C(F)(F)F)c3)cc2)ccn1 [Sorafenib, reference compound]",TGI (%),"RENCA; Experimental Example 16, Sorafenib 10 mg/kg oral every day from 7th day",29.4%
same,Expression rate (%) of calreticulin on cell surface,"calreticulin (ecto-CRT); Liver cancer, Hapa1-6",435%
CNC(=O)c1cccc(-c2ccc3c(N4CCOC[C@@H]4C)nc(N4CCOC[C@@H]4C)nc3n2)c1 [Vistusertib],Expression rate (%) of calreticulin on cell surface,"calreticulin (ecto-CRT); Colorectal cancer, MC38",175%
same,Expression rate (%) of calreticulin on cell surface,"calreticulin (ecto-CRT); Renal cancer, RENCA",341%
same,Expression rate (%) of calreticulin on cell surface,"calreticulin (ecto-CRT); Skin cancer (melanoma), B16F10",145%
